From ChEMBL document CHEMBL1128598, “Potential anxiolytic agents. Pyrido[1,2-a]benzimidazoles: a new structural class of ligands for the benzodiazepine binding site on GABA-A receptors” (J Med Chem, 1995)

Legend:
[1] = biological target: GABA-A receptor; anion channel; assay: Binding affinity against benzodiazepine site of gamma-aminobutyric-acid A receptor of rat cerebral cortex by using [3H]flunitrazepam in the presence of GABA 1 mM.; assay type: tissue-based
Mus musculus = assay: The ability to block the tonic-clonic component of seizures induced by metrazole in mice after intraperitoneal administration.; assay type: functional; conditions: ip
Rattus norvegicus = assay: Minimum effective dose as dose required to release behavior in suppressed rats by conflict test after intraperitoneal administration.; assay type: functional; conditions: ip, read-out: MED
[2] = biological target: GABA-A receptor; anion channel (Rattus norvegicus) (UniProt O09028+P15431+P18506+P18508+P19969+P20236+P23574+P23576+P28471+P28473+P30191+P62813+P63079+P63138+Q91ZM7+Q9ES14); assay: GABA shift as the ratio of IC50 (no GABA) to that of IC50 (GABA); GABA shift; assay type: protein-complex assay
[3] = biological target: GABA-A receptor; anion channel; assay: Binding affinity against benzodiazepine site of gamma-aminobutyric-acid A receptor of rat cerebral cortex by using [3H]flunitrazepam in the absence of GABA.; assay type: tissue-based

| Compound | IC50 [1] | ED50 (Mus musculus) | minimal effective dose (Rattus norvegicus) | GS [2] | IC50 [3] |
| --- | --- | --- | --- | --- | --- |
| O=C(Nc1ccc(Cl)cc1)C1=C(O)CCn2c1nc1ccccc12 | 0.265 µM | 8.9 mg/kg | 1 mg/kg | 2.3 | 0.62 µM |
| O=C(Nc1ccccc1Cl)C1=C(O)CCn2c1nc1ccccc12 | 0.0053 µM | 0.95 mg/kg | 10 mg/kg | 2.3 | 0.012 µM |
| O=C(Nc1cccc(Cl)c1)C1=C(O)CCn2c1nc1ccccc12 | 0.095 µM | > 30 mg/kg | > 10 mg/kg | 1.3 | 0.12 µM |
| O=C1CCN2C(=C1C(=O)Nc1ccccc1)N(Cc1ccccc1)c1ccccc12 | 0.0027 µM | 1.4 mg/kg | 10 mg/kg | 4.6 | 0.012 µM |
| O=C(NC1CCCCC1)C1=C(O)CCn2c1nc1ccccc12 | 0.072 µM | 3 mg/kg | 10 mg/kg | 2 | 0.14 µM |
| O=C(Nc1ccccc1F)c1c(O)ccn2c1nc1ccccc12 | 0.00011 µM | 0.088 mg/kg | 0.1 mg/kg | 2.1 | 0.00023 µM |
| O=C(Nc1ccccc1)c1c(O)ccn2c1nc1ccccc12 | 0.014 µM | 0.39 mg/kg | 10 mg/kg | 1.7 | 0.024 µM |
| O=C1CCN2C(=C1C(=O)Nc1ccccc1)Nc1ccccc12 | 0.0059 µM | 5.2 mg/kg | 10 mg/kg | 1.5 | 0.0091 µM |
| NC(=O)C1=C(O)CCn2c1nc1ccccc12 | 6 µM | > 30 mg/kg | 10 mg/kg | 0.4 | 2.4 µM |
| CN1C(=O)CN=C(c2ccccc2)c2cc(Cl)ccc21 [DIAZEPAM] |  | 0.11 mg/kg | 5 mg/kg | 2.2 |  |
| COc1ccc(NC(=O)C2=C(O)CCn3c2nc2ccccc23)cc1 | 0.016 µM | 2 mg/kg | 10 mg/kg | 2.6 | 0.041 µM |
| CCN1C2=C(C(=O)Nc3ccccc3)C(=O)CCN2c2ccccc21 | 0.0014 µM | 0.083 mg/kg | 0.3 mg/kg | 1.6 | 0.0021 µM |
| O=C1CCn2c(nc3ccccc32)/C1=C(\O)Sc1ccccc1 | 0.026 µM | > 30 mg/kg | > 10 mg/kg | 1.1 | 0.029 µM |
| CN1C2=C(C(=O)Nc3ccccc3F)C(=O)CCN2c2ccccc21 | 0.00026 µM | 0.019 mg/kg | 0.03 mg/kg | 1.6 | 0.00042 µM |
| CN(C(=O)C1=C(O)CCn2c1nc1ccccc12)c1ccccc1 | > 10 µM | > 10 mg/kg | > 10 mg/kg |  | > 10 µM |
| O=C(NC1CCC1)C1=C(O)CCn2c1nc1ccccc12 | 0.025 µM | > 30 mg/kg | 10 mg/kg | 1.2 | 0.03 µM |
| CCO/C(O)=C1\C(=O)CCn2c1nc1ccccc12 | 0.84 µM | > 10 mg/kg |  | 0.68 | 0.675 µM |
| COc1ccccc1NC(=O)C1=C(O)CCn2c1nc1ccccc12 | 0.94 µM | > 10 mg/kg | > 10 mg/kg | 1.1 | 0.99 µM |
| CN1C2=C(C(=O)Nc3ccccc3)C(=O)CCN2c2ccccc21 | 0.0021 µM | 0.13 mg/kg | 1 mg/kg | 2.8 | 0.0058 µM |
| O=C1CCn2c(nc3ccccc32)/C1=C(\O)Oc1ccccc1 | 0.15 µM | 9.9 mg/kg | > 10 mg/kg | 1.4 | 0.2 µM |
| COc1cccc(NC(=O)C2=C(O)CCn3c2nc2ccccc23)c1 | 0.016 µM | > 10 mg/kg | 5 mg/kg | 1.6 | 0.026 µM |
| OC1=C(/C(S)=N/c2ccccc2)c2nc3ccccc3n2CC1 | 0.32 µM | > 10 mg/kg | > 10 mg/kg | 1.1 | 0.36 µM |
| O=C(Nc1c(F)cccc1F)C1=C(O)CCn2c1nc1ccccc12 | 0.0017 µM | 0.85 mg/kg | 0.1 mg/kg | 1.6 | 0.0028 µM |
| O=C(Nc1ccccc1F)C1=C(O)CCn2c1nc1ccccc12 | 0.0014 µM | 0.16 mg/kg | 1 mg/kg | 1.2 | 0.0017 µM |
| O=C(NC1CC1)C1=C(O)CCn2c1nc1ccccc12 | 0.018 µM | > 10 mg/kg | > 10 mg/kg | 0.87 | 0.016 µM |
| O=C(Nc1c(Cl)cccc1Cl)C1=C(O)CCn2c1nc1ccccc12 | 0.17 µM | > 30 mg/kg | > 10 mg/kg | 1.9 | 0.32 µM |
